Laboratory results published in paper PMC12307583 (Scientific Reports, 2025).

Experiments:
PfGrp94 = PfGrp94 (Plasmodium falciparum, UniProt Q8I0V4); conditions: basal ATPase; used as control protein
PfGrp170 [1] = molecular target: T1, PfGrp170 (Plasmodium falciparum, UniProt C0H5H0); assay: biochemical
T1 sequence (C0H5H0 20-932): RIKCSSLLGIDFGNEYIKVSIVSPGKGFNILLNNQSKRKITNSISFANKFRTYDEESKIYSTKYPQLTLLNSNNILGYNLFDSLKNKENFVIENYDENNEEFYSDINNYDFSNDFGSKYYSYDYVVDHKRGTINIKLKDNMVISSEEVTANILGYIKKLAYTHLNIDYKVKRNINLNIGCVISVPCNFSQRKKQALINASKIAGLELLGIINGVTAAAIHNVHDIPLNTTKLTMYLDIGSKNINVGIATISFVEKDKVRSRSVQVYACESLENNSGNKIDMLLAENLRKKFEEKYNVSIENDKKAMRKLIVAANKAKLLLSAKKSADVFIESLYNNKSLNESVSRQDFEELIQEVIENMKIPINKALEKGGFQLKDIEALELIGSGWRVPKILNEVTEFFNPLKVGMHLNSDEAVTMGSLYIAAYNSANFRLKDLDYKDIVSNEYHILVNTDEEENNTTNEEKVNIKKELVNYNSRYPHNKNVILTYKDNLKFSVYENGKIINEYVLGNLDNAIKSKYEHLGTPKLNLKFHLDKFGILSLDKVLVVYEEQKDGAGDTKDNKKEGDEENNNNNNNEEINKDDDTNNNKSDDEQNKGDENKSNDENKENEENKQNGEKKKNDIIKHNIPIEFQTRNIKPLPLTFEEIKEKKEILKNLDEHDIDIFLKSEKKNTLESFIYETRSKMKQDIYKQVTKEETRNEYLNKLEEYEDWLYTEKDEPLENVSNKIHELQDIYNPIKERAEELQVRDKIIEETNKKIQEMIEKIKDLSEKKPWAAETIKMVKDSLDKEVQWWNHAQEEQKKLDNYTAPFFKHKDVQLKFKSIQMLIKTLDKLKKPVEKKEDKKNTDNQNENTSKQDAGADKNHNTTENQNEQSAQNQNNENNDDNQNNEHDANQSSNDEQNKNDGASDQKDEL

PfGrp170 [2] = molecular target: T1, PfGrp170; assay: suppression of heat-induced MDH aggregation, light scattering […] nm; format: biochemical; conditions: 100 µM NECA, 1 µM PfGrp170, MDH (pig heart), 20 mM Tris-HCl pH 7.5, 200 mM NaCl, 5 mM MgCl2, 48 °C; inhibitor of chaperone function

Sequence of PfGrp94 (Q8I0V4 29-821): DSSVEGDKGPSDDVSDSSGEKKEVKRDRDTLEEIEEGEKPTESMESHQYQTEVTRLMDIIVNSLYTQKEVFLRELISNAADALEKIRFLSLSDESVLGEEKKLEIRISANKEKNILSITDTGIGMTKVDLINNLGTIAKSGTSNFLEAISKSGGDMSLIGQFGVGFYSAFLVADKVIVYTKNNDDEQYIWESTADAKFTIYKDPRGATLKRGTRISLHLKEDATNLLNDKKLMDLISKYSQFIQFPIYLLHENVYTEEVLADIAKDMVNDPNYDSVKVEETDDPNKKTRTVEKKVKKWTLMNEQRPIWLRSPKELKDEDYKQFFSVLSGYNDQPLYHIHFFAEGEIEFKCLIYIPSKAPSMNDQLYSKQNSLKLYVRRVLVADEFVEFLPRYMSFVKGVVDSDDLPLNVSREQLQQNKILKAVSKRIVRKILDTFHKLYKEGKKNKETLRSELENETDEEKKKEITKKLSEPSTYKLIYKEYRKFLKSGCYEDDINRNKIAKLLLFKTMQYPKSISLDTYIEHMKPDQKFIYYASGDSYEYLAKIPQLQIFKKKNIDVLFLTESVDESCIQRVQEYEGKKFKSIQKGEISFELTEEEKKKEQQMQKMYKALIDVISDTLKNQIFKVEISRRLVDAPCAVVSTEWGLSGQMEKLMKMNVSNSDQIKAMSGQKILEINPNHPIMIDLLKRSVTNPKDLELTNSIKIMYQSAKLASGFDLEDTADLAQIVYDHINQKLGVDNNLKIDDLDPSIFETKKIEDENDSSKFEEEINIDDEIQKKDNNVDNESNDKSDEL

Row | Kd (PfGrp170 [1]) [nM] | SMILES | ATPase activity (PfGrp94) | relative aggregation (PfGrp170 [2])
1 | 143 ± 15.6 | Nc1ncnc2c1ncn2[C@@H]1O[C@H](COP(=O)(O)OP(=O)(O)OP(=O)(O)O)[C@@H](O)[C@H]1O [ATP] | The basal ATPase activity of PfGrp170 and PfGrp94 as control | 
2 |  | CCNC(=O)[C@H]1O[C@@H](n2cnc3c(N)ncnc32)[C@H](O)[C@@H]1O [NECA] |  | higher concentrations of NECA abrogated the chaperone function of PfGrp170
